Patent US20260297042A1, “BIARYLAMIDE DERIVATIVES AND THEIR USE AS PKMYT1 INHIBITORS” (CANCER RESEARCH TECHNOLOGY LIMITED, priority 2023, published 2026)

Tests used:
OVCAR 3 cells = assay: Cancer cell line proliferation assay, ATP-based cell viability (Cell Titre Glow), OVCAR 3 (CCNE1-amplified); conditions: for Selectivity ratio KYSE30 Gl50 vs. OVCAR3 Gl50: KYSE30 (normal CCNE1) GI50 vs. OVCAR 3 (CCNE1-amplified) GI50
Experimental: (§1) Cancer cell lines with either normal (KYSE-30) or amplified CCNE1 expression (OVCAR 3 —ovarian cancer) were evaluated for their sensitivity to PKMYT1 inhibitors using Cell Titre Glow assay (Promega G7573) as endpoint to assess cell proliferation. The luminescence signal was read on a PHERAStar FS microplate reader (BMG Labtech). Data analysis was performed using Microsoft Excel® and Gl50 (concentration that achieves 50% cell growth proliferation inhibition) estimates generated with GraphPad Prism v9.

Human PKMYT1 = target: T1, Human PKMYT1 (Homo sapiens, UniProt Q99640); assay: PKMYT1 biochemical ADP-Glo enzymatic assay; conditions: ADP-Glo
T1 construct: Human PKMYT1 75-362 was cloned as a TEV cleavable 6xHis fusion; 6xHis (TEV cleavable) (cleaved yes); made in house; host or cells: bacterial cells
T1 sequence (Q99640 75-362): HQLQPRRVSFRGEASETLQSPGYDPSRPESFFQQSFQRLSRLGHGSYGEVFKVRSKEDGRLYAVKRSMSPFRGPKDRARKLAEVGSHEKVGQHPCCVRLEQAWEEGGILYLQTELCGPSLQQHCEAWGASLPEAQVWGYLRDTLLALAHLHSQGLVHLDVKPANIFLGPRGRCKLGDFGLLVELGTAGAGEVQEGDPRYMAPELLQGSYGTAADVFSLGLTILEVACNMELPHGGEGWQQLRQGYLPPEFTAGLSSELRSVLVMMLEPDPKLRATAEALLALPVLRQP
Procedure, shortened: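 Purified untagged human PKMYT1 75-362 at 15 nM final was tested in HEPES pH 7.5 with MgCl2, EGTA, Brij-35 and 1% DMSO. Intrinsic ATPase activity was measured with 500 uM ATP over 60 min at 26° C. ADP-Glo luminescence was read and IC50 fitted from 10-point, 3-fold dilution curves.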

KYSE-30 cells = assay: Cancer cell line proliferation assay, ATP-based cell viability (Cell Titre Glow), KYSE-30 (normal CCNE1); conditions: Homo sapiens, KYSE-30 cells (normal CCNE1), concentration that achieves 50% cell growth proliferation inhibition, read-out: KYSE30 Gl50
Experimental: as §1

WEE1 = target: T2, WEE1 (Homo sapiens, UniProt P30291); assay: Selectivity versus WEE1 assay (ADP-Glo enzymatic assay); assay type: biochemical; conditions: for IC50: ADP-Glo; for PKMYT1 vs. WEE1 selectivity: fold difference in selectivity for PKMYT1 over WEE1
T2 construct: purchased Thermo Fisher PR7373A
Procedure, shortened: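 WEE1 at 15 nM final in 50 mM HEPES pH 7.5, 10 mM MgCl2, 1 mM EGTA, 0.01% Brij-35, 1% DMSO; reaction started with 30 µM ATP, 60 min at 26 °C. ADP-Glo luminescence; IC50 from dose-response curves, replicates within 3-fold and r2 >0.9.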

[1] = 15 nM PKMYT1 kinase domain, 500 µM ATP, 60 minutes at 26° C., banded
[2] = 15 nM WEE1, 60 minutes at 26° C., banded
[3] = banded, ">N" = at least in this band but could be higher
[4] = PKMYT1 kinase domain 15 nM, banded values

T2 sequence (P30291 whole entry): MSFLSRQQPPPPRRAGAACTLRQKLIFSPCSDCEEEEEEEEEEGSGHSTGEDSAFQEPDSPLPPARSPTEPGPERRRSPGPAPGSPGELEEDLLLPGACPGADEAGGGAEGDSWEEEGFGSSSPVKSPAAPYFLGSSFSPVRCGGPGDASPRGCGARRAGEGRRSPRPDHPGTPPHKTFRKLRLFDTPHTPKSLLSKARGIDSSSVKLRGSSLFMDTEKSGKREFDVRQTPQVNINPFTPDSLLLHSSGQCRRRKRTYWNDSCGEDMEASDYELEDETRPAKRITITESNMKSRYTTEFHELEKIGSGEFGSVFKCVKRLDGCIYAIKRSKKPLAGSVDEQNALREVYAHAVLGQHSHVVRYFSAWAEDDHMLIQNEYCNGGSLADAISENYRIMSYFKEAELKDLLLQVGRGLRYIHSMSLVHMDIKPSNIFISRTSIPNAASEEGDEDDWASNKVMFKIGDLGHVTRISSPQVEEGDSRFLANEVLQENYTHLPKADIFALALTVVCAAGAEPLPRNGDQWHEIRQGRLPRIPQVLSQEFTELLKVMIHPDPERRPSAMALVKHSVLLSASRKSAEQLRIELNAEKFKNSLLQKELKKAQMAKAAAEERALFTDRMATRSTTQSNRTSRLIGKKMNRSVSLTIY

Row | GI50 (OVCAR 3 cells; Homo sapiens, OVCAR 3 cells (CCNE1-amplified), concentration that achieves 50% cell growth proliferation inhibition, read-out: OVCAR 3 Gl50) [nM] | IC50 (Human PKMYT1; [1]) [nM] | IC50 (WEE1; [2]) [nM] | PKMYT1 vs. WEE1 selectivity (WEE1; [3]) | IC50 (Human PKMYT1; [4]) [nM] | IC50 (WEE1; WEE1 15 nM, banded values) [nM] | PKMYT1 vs. WEE1 selectivity (WEE1; banded) | SMILES | Selectivity ratio KYSE30 Gl50 vs. OVCAR3 Gl50 (OVCAR 3 cells) | GI50 (KYSE-30 cells) [nM]
1 | 500 to 5000 | < 50 | 1000 to 11000 | W (10-<100 fold) | – | – | – | Cc1ccc(O)c(C)c1NC(=O)c1cnc(Nc2ccn(C3CCC3)n2)s1 [BAA-013, 2-[(1-cyclobutylpyrazol-3-yl)amino]-N-(3-hydroxy-2,6-dimethyl-phenyl)thiazole-5-carboxamide] | X (3-20 fold) | > 5000
2 | – | < 50 | 1000 to 11000 | W (10-<100 fold) | – | – | – | Cc1ccc(O)c(C)c1NC(=O)c1cnc(Nc2ccn(CC(C)C)n2)s1 [BAA-016, N-(3-hydroxy-2,6-dimethyl-phenyl)-2-[(1-isobutylpyrazol-3-yl)amino]thiazole-5-carboxamide] | X (3-20 fold) | 500 to 5000
3 | – | < 50 | 1000 to 11000 | X (100-<1000 fold) | – | – | – | Cc1ccc(O)c(C)c1NC(=O)c1cnc(Nc2ccn(CC(C)(C)O)n2)s1 [BAA-038] | Y (>20 fold) | > 5000
4 | – | < 50 | 1000 to 11000 | X (100-<1000 fold) | – | – | – | Cc1cn(C)nc1Nc1ncc(C(=O)Nc2c(C)ccc(O)c2C)s1 [BAA-123, 2-[(1,4-dimethylpyrazol-3-yl)amino]-N-(3-hydroxy-2,6-dimethyl-phenyl)thiazole-5-carboxamide] | Y (>20 fold) | > 5000
5 | – | 50 to 1000 | 1000 to 11000 | X (100-<1000 fold) | – | – | – | Cc1ccc(O)c(C)c1NC(=O)c1cnc(Nc2nn(C)c(C)c2C)s1 [BAA-128, N-(3-hydroxy-2,6-dimethyl-phenyl)-2-[(1,4,5-trimethylpyrazol-3-yl)amino]thiazole-5-carboxamide] | Y (>20 fold) | > 5000
6 | – | < 50 | 1000 to 11000 | W (10-<100 fold) | – | – | – | Cc1ccc(O)c(C)c1NC(=O)c1cnc(Nc2cc(C)n(C3CCCC3)n2)s1 [BAA-232, 2-((1-cyclopentyl-5-methyl-1H-pyrazol-3-yl)amino)-N-(3-hydroxy-2,6-dimethylphenyl)thiazole-5-carboxamide] | Y (>20 fold) | > 5000
7 | – | < 50 | 50 to 1000 | W (10-<100 fold) | – | – | – | Cc1ccc(O)c(C)c1NC(=O)c1cnc(Nc2cc(C)n(C(C)C)n2)s1 [BAA-233, N-(3-hydroxy-2,6-dimethylphenyl)-2-((1-isopropyl-5-methyl-1H-pyrazol-3-yl)amino)thiazole-5-carboxamide] | Y (>20 fold) | > 5000
8 | – | < 50 | 1000 to 11000 | W (10-<100 fold) | – | – | – | Cc1ccc(O)c(C)c1NC(=O)c1cnc(Nc2cc(C)n(CC(C)C)n2)s1 [BAA-237, N-(3-hydroxy-2,6-dimethylphenyl)-2-((1-isobutyl-5-methyl-1H-pyrazol-3-yl)amino)thiazole-5-carboxamide] | Y (>20 fold) | 500 to 5000
9 | – | < 50 | 1000 to 11000 | W (10-<100 fold) | – | – | – | Cc1ccc(O)c(C)c1NC(=O)c1cnc(Nc2cccc(N3CCC(N)CC3)n2)s1 [BAA-274, 2-((6-(4-aminopiperidin-1-yl)pyridin-2-yl)amino)-N-(3-hydroxy-2,6-dimethylphenyl)thiazole-5-carboxamide] | Y (>20 fold) | 500 to 5000
10 | – | 50 to 1000 | > 11000 | X (100-<1000 fold) | – | – | – | Cc1ccc(O)c(C)c1NC(=O)c1cnc(Nc2cc(-c3ccc(F)cc3)ccn2)s1 [BAA-294, 2-((4-(4-fluorophenyl)pyridin-2-yl)amino)-N-(3-hydroxy-2,6-dimethylphenyl)thiazole-5-carboxamide] | Y (>20 fold) | > 5000
11 | – | 50 to 1000 | > 11000 | X (100-<1000 fold) | – | – | – | Cc1ccc(O)c(C)c1NC(=O)c1cnc(Nc2cccc(-c3ccc(F)cc3)n2)s1 [BAA-306, 2-((6-(4-fluorophenyl)pyridin-2-yl)amino)-N-(3-hydroxy-2,6-dimethylphenyl)thiazole-5-carboxamide] | X (3-20 fold) | 500 to 5000
12 | – | 50 to 1000 | > 11000 | Y (1000-5000 fold) | – | – | – | Cc1cc(Nc2ncc(C(=O)Nc3c(C)ccc(O)c3C)s2)nc(-c2ccc(F)cc2)n1 [BAA-307, 2-((2-(4-fluorophenyl)-6-methylpyrimidin-4-yl)amino)-N-(3-hydroxy-2,6-dimethylphenyl)thiazole-5-carboxamide] | Y (>20 fold) | 500 to 5000
13 | – | < 50 | > 11000 | Y (1000-5000 fold) | – | – | – | Cc1ccc(O)c(C)c1NC(=O)c1cnc(Nc2cccc(-c3cc(F)cc(F)c3)n2)s1 [BAA-315, 2-((6-(3,5-difluorophenyl)pyridin-2-yl)amino)-N-(3-hydroxy-2,6-dimethylphenyl)thiazole-5-carboxamide] | Y (>20 fold) | 500 to 5000
14 | – | 50 to 1000 | > 11000 | X (100-<1000 fold) | – | – | – | Cc1ccc(O)c(C)c1NC(=O)c1cnc(Nc2cc(C(F)(F)F)nc(NCCC(C)(C)C)n2)s1 [BAA-322, 2-((2-((3,3-dimethylbutyl)amino)-6-(trifluoromethyl)pyrimidin-4-yl)amino)-N-(3-hydroxy-2,6-dimethylphenyl)thiazole-5-carboxamide] | Y (>20 fold) | 500 to 5000
15 | – | 50 to 1000 | > 11000 | Y (1000-5000 fold) | – | – | – | Cc1ccc(NC(=O)OC(C)(C)C)nc1Nc1ncc(C(=O)Nc2c(C)ccc(O)c2C)s1 [BAA-329, tert-butyl (6-((5-((3-hydroxy-2,6-dimethylphenyl)carbamoyl)thiazol-2-yl)amino)-5-methylpyridin-2-yl)carbamate] | X (3-20 fold) | 500 to 5000
16 | – | < 50 | > 11000 | Y (1000-5000 fold) | – | – | – | COc1ccc(NC(=O)C(C)(C)C)nc1Nc1ncc(C(=O)Nc2c(C)ccc(O)c2C)s1.Cl [BAA-330, N-(3-Hydroxy-2.6-dimethylphenyl)-2-((3-methoxy-6-pivalamidopyridin-2-yl)amino)thiazole-5-carboxamide hydrochloride] | Y (>20 fold) | 500 to 5000
17 | – | – | – | – | 1000 to 11000 | – | – | Cc1c(O)cc(Br)c(C)c1NC(=O)c1cnc(Nc2nn(C3CCS(=O)(=O)C3)c(C)c2Br)s1 (stereo not drawn) [BAA-557, 2-((4-Bromo-1-(1,1-dioxidotetrahydrothiophen-3-yl)-5-methyl-1H-pyrazol-3-yl)amino)-N-(3-bromo-5-hydroxy-2.6-dimethylphenyl)thiazole-5-carboxamide] | Y (>20 fold) | > 5000
18 | – | – | – | – | 50 to 1000 | > 11000 | X (100-<1000 fold) | Cc1ccc(O)c(C)c1NC(=O)c1cnc(Nc2nccc3ncccc23)s1 [BAA-603, 2-((1,6-naphthyridin-5-yl)amino)-N-(3-hydroxy-2,6-dimethylphenyl)thiazole-5-carboxamide] | – | –
19 | – | – | – | – | 50 to 1000 | > 11000 | X (100-<1000 fold) | CCN(CC)C(=O)Cn1cc(C)c(Nc2ncc(C(=O)Nc3c(C)cc(Br)c(O)c3C)s2)n1 [BAA-608, N-(4-bromo-3-hydroxy-2,6-dimethylphenyl)-2-((1-(2-(diethylamino)-2-oxoethyl)-4-methyl-1H-pyrazol-3-yl)amino)thiazole-5-carboxamide] | – | –
